# Assay results taken from patent publication US5342925A, “Radioactive compositions for soft tissue tumors” (priority 1991, dated 1994).
# “And” between values parts separate entries of the source, which are not always exact repeats. Identical values can stand only once.
# How the values were obtained:
# [1] = system: Ehrlich tumors; conditions: experimental animals bearing Ehrlich tumors; cited from earlier work
# [2] = system: naturally occurring melanotic lesions; assay: Tumor uptake scored from images of miniature pigs with naturally occurring melanotic lesions; format: in vivo; conditions: 24 hour images, average score of 3 investigators, scale 0-3
# Protocol: (§1) Images (right lateral, left lateral and dorsal) were made at 4, 24, 48 and 72 hours.
# (§2) 1--Slight uptake (negligible)
# (§3) 2--Moderate uptake (intermediate )
# (§4) 3--Definite uptake (high)
# (§5) The average of the 3 investigators independent scores were used in the following table.
# [3] = Whole body retention (whole body counts after I.V. injection) in miniature pigs with melanotic lesions; format: in vivo; conditions: for % Whole Body Retention (24 hrs.): I.V., 1-2 mCi 153Sm, % = percentage of injected dose
# Protocol: as §1
# [4] = Bone and liver uptake scored from scintigraphic images of miniature pigs with melanotic lesions; format: in vivo
# Protocol: as §1, §2, §3, §4, §5
# [5] = in vivo; cited from earlier work
# [6] = 24 hour images, average score of 3 investigators, scale 0-3
# [7] = Comparative Example A, in words
compound,measurement,setting,value
"O=C(O)CNCC(=O)O [iminodiacetic acid (IDA), iminodiacetic acid]",tumor imaging,[1],less effective
CC(=O)Nc1cc(CN(CC(=O)O)CC(=O)O)c(O)c(CN(CC(=O)O)CC(=O)O)c1.[153Sm+3] [Example 3],Tumor Uptake (Left sacrum),[2]; Left sacrum,3.00
same,Tumor Uptake (Right nasal),[2]; Right nasal,2.00
same,Tumor Uptake (Right stifle),[2]; Right stifle,0.00
same,% Whole Body Retention (24 hrs.),[3],42.9% and 37.1%
CC(=O)Nc1cc(CN(CC(=O)O)CC(=O)O)c(O)c(CN(CC(=O)O)CC(=O)O)c1.[153Sm+3] [Example 1],Bone Uptake,[4]; [6],3.00
same,Liver Uptake,[4]; [6],0.67
same,Tumor Uptake (Dorsal neck),[2],3.00
same,Tumor Uptake (Left stifle),[2],2.00
same,Tumor Uptake (Right head),[2],0.67
same,Tumor Uptake (Right thorax),[2],2.00
same,% Whole Body Retention (24 hrs.),[3],29.5% and 40.1%
^99m Tc-ethylenediaminediacetic acid,tumor imaging,[1],could be used to image tumors
"CN(CC(=O)O)CC(=O)O [methyliminodiacetic acid (MIDA), methyliminodiacetic acid]",tumor imaging,[1],less effective
CC(=O)Nc1cc(CN(CC(=O)O)CC(=O)O)c(O)c(CN(CC(=O)O)CC(=O)O)c1.[153Sm+3] [Example 4],Bone Uptake,[4]; [6],1.67
same,Liver Uptake,[4]; [6],3.00 and 2.00
same,Tumor Uptake (Left carpus),[2]; Left carpus,0.00
same,Tumor Uptake (Left stifle),[2],0.00
same,Tumor Uptake (Right ear),[2]; Right ear,2.00
same,% Whole Body Retention (24 hrs.),[3],55.2% and 48.2%
O=C(O)CN(CCO)CCN(CC(=O)O)CC(=O)O [hydroxyethylethylenediaminetriacetic acid],tumor imaging,[1],less effective
"O=C(O)CN(CC(=O)O)CC(=O)O [nitrilotriacetic acid (NTA), nitrilotriacetic acid]",tumor imaging,[1],less effective
CC(=O)Nc1ccc(O)c(CN(CC(=O)O)CC(=O)O)c1.[153Sm+3] [Example 2],Bone Uptake,[4]; [6],1.33 and 2.33
same,Liver Uptake,[4]; [6],2.00 and 1.00
same,Tumor Uptake (Dorsal neck),[2],3.00
same,Tumor Uptake (Left stifle),[2],2.00
same,Tumor Uptake (Right head),[2],0.00
same,Tumor Uptake (Right thorax),[2],0.00
same,Tumor Uptake (draining node),[2]; draining node,0.00
same,% Whole Body Retention (24 hrs.),[3],60.7% and 46.6%
"O=C(O)CN(CCN(CC(=O)O)CC(=O)O)CC(=O)O [ethylenediaminetetraacetic acid (EDTA), ethylenediaminetetraacetic acid]",tumor imaging,[1],less effective
"O=C([O-])CC(O)(CC(=O)[O-])C(=O)[O-].[67Ga+3] [^67 Ga-citrate, reference compound]",Liver Uptake,[4]; [7],unacceptably large liver uptake
same,clearance from extracellular fluid,[3]; [7],never cleared the extracellular fluid
O=C([O-])CN(CCN(CC(=O)[O-])CC(=O)[O-])CCN(CC(=O)[O-])CC(=O)[O-].[99Tc+4] [^99m Tc-DTPA],elimination route,[5],eliminated from the body by the kidneys into the urine
same,tissue localization,[5],does not result in the radionuclide localizing in any tissue
